Test results: patent US6737383B1, “Herbicidal oxadiazolidines” (priority 1999, dated 2004)

What was measured:
purple nutsedge = experiment: Test B pre/postemergence purple nutsedge; format: in vivo, Cyperus rotundus
In short: (§1)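 Response is a visual 0-to-10 score relative to untreated plants, where 0 means no effect and 10 means complete control, taken twelve to sixteen days after application. Treatments went onto soil at planting and onto foliage of 1- to 4-leaf plants, using a surfactant-containing non-phytotoxic solvent.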

crabgrass = experiment: Test B pre/postemergence crabgrass; format: in vivo, Digitaria sanguinalis
In short: as §1

pigweed = experiment: Test B pre/postemergence pigweed; format: in vivo, Amaranthus retroflexus
In short: as §1

blackgrass = experiment: Test B pre/postemergence blackgrass; format: in vivo, Alopecurus myosuroides
In short: as §1

wheat = experiment: Test B pre/postemergence wheat; format: in vivo, Triticum aestivum
In short: as §1

bedstraw = experiment: Test B pre/postemergence bedstraw; format: in vivo, Galium aparine
In short: as §1

wild oat = experiment: Test B pre/postemergence wild oat; format: in vivo, Avena fatua
In short: as §1

giant foxtail = experiment: Test B pre/postemergence giant foxtail; format: in vivo, Setaria faberii
In short: as §1

sugar beet = experiment: Test B pre/postemergence sugar beet; format: in vivo, Beta vulgaris
In short: as §1

surinam grass = experiment: Test B pre/postemergence surinam grass; format: in vivo, Brachiaria decumbens
In short: as §1

cocklebur = experiment: Test B pre/postemergence cocklebur; format: in vivo, Xanthium strumarium
In short: as §1

velvetleaf = experiment: Test B pre/postemergence velvetleaf; format: in vivo, Abutilon theophrasti
In short: as §1

rape = experiment: Test B pre/postemergence rape; format: in vivo, Brassica napus
In short: as §1

morningglory = experiment: Test B pre/postemergence morningglory; format: in vivo, Ipomoea hederacea
In short: as §1

corn = experiment: Test B pre/postemergence corn; format: in vivo, Zea mays
In short: as §1

soybean = experiment: Test B pre/postemergence soybean; format: in vivo, Glycine max
In short: as §1

[1] = Postemergence, Rate 62 g/ha, scale 0 to 10, 0 is no effect, 10 is complete control
[2] = Postemergence, Rate 125 g/ha, scale of 0 to 10 where 0 is no effect and 10 is complete control
[3] = Preemergence, Rate 62 g/ha, scale of 0 to 10 where 0 is no effect and 10 is complete control
[4] = Preemergence, Rate 125 g/ha, scale of 0 to 10 where 0 is no effect and 10 is complete control
[5] = Preemergence, Rate 250 g/ha, scale 0 to 10 (0 no effect, 10 complete control)
[6] = Preemergence, Rate 500 g/ha, scale of 0 to 10 where 0 is no effect and 10 is complete control
[7] = Rate 500 g/ha, Postemergence, scale 0 to 10, 0 is no effect, 10 is complete control
[8] = Postemergence, Rate 250 g/ha, scale of 0 to 10, 0 is no effect, 10 is complete control

CC(C)N(C(=O)n1oc(=O)n(C(CCl)CCl)c1=O)c1ccc(F)cc1 [Compound 672]
Plant response rating, Nutsedge (purple nutsedge; [1]): 0 | Nutsedge plant response rating (purple nutsedge; [2]): 0 | Nutsedge plant response rating (purple nutsedge; [3]): 0 | Plant response rating, Nutsedge (purple nutsedge; [4]): 0 | Plant response rating, Nutsedge (purple nutsedge; [5]): 0 | Plant response rating, Nutsedge (purple nutsedge; [6]): 0 | Nutsedge plant response rating (purple nutsedge; [7]): 5 | Plant response rating, Crabgrass (crabgrass; [1]): 5 | Crabgrass plant response rating (crabgrass; [2]): 6 | Crabgrass plant response rating (crabgrass; [8]): 7 | Crabgrass plant response rating (crabgrass; [3]): 8 | Plant response rating, Crabgrass (crabgrass; [4]): 10 | Plant response rating, Crabgrass (crabgrass; [5]): 10 | Plant response rating, Crabgrass (crabgrass; [6]): 10 | Crabgrass plant response rating (crabgrass; [7]): 9 | Plant response rating, Redroot pigweed (pigweed; [1]): 7 | Redroot pigweed plant response rating (pigweed; [3]): 0 | Plant response rating, Redroot pigweed (pigweed; [4]): 3 | Plant response rating, Redroot pigweed (pigweed; [5]): 7 | Plant response rating, Redroot pigweed (pigweed; [6]): 8 | Redroot pigweed plant response rating (pigweed; [7]): 8 | Plant response rating, Blackgrass (blackgrass; [1]): 0 | Blackgrass plant response rating (blackgrass; [2]): 2 | Blackgrass plant response rating (blackgrass; [8]): 6 | Blackgrass plant response rating (blackgrass; [3]): 1 | Plant response rating, Blackgrass (blackgrass; [4]): 3 | Plant response rating, Blackgrass (blackgrass; [5]): 8 | Plant response rating, Blackgrass (blackgrass; [6]): 8 | Blackgrass plant response rating (blackgrass; [7]): 6 | Plant response rating, Wheat (wheat; [1]): 0 | Wheat plant response rating (wheat; [2]): 0 | Wheat plant response rating (wheat; [3]): 0 | Plant response rating, Wheat (wheat; [4]): 0 | Plant response rating, Wheat (wheat; [5]): 0 | Plant response rating, Wheat (wheat; [6]): 0 | Wheat plant response rating (wheat; [7]): 0 | Bedstraw plant response rating (bedstraw; [8]): 4 | Bedstraw plant response rating (bedstraw; [3]): 0 | Plant response rating, Bedstraw (bedstraw; [4]): 0 | Plant response rating, Bedstraw (bedstraw; [5]): 0 | Plant response rating, Bedstraw (bedstraw; [6]): 0 | Bedstraw plant response rating (bedstraw; [7]): 6 | Plant response rating, Wild oats (wild oat; [1]): 0 | Wild oats plant response rating (wild oat; [2]): 0 | Wild oats plant response rating (wild oat; [3]): 0 | Plant response rating, Wild oats (wild oat; [4]): 4 | Plant response rating, Wild oats (wild oat; [5]): 5 | Plant response rating, Wild oats (wild oat; [6]): 7 | Wild oats plant response rating (wild oat; [7]): 0 | Plant response rating, Giant foxtail (giant foxtail; [1]): 3 | Giant foxtail plant response rating (giant foxtail; [2]): 5 | Giant foxtail plant response rating (giant foxtail; [8]): 8 | Giant foxtail plant response rating (giant foxtail; [3]): 9 | Plant response rating, Giant foxtail (giant foxtail; [4]): 10 | Plant response rating, Giant foxtail (giant foxtail; [5]): 10 | Plant response rating, Giant foxtail (giant foxtail; [6]): 10 | Giant foxtail plant response rating (giant foxtail; [7]): 9 | Plant response rating, Sugarbeets (sugar beet; [1]): 0 | Sugarbeets plant response rating (sugar beet; [2]): 0 | Sugarbeets plant response rating (sugar beet; [3]): 3 | Plant response rating, Sugarbeets (sugar beet; [4]): 4 | Plant response rating, Sugarbeets (sugar beet; [5]): 7 | Plant response rating, Sugarbeets (sugar beet; [6]): 8 | Sugarbeets plant response rating (sugar beet; [7]): 3 | Plant response rating, B. signalgrass (surinam grass; [1]): 0 | Plant response rating, B. signalgrass (surinam grass; [2]): 3 | B. signalgrass plant response rating (surinam grass; [8]): 3 | B. signalgrass plant response rating (surinam grass; [3]): 2 | Plant response rating, B. signalgrass (surinam grass; [4]): 4 | Plant response rating, B. signalgrass (surinam grass; [5]): 6 | Plant response rating, B. signalgrass (surinam grass; [6]): 8 | B. signalgrass plant response rating (surinam grass; [7]): 4 | Plant response rating, Cocklebur (cocklebur; [1]): 0 | Cocklebur plant response rating (cocklebur; [2]): 1 | Cocklebur plant response rating (cocklebur; [8]): 2 | Cocklebur plant response rating (cocklebur; [3]): 0 | Plant response rating, Cocklebur (cocklebur; [4]): 0 | Plant response rating, Cocklebur (cocklebur; [5]): 0 | Cocklebur plant response rating (cocklebur; [7]): 7 | Plant response rating, Velvetleaf (velvetleaf; [1]): 6 | Velvetleaf plant response rating (velvetleaf; [2]): 6 | Velvetleaf plant response rating (velvetleaf; [3]): 0 | Plant response rating, Velvetleaf (velvetleaf; [4]): 3 | Plant response rating, Velvetleaf (velvetleaf; [5]): 3 | Plant response rating, Velvetleaf (velvetleaf; [6]): 4 | Velvetleaf plant response rating (velvetleaf; [7]): 7 | Plant response rating, Rape (rape; [1]): 0 | Rape plant response rating (rape; [2]): 3 | Rape plant response rating (rape; [3]): 0 | Plant response rating, Rape (rape; [4]): 2 | Plant response rating, Rape (rape; [5]): 7 | Plant response rating, Rape (rape; [6]): 8 | Rape plant response rating (rape; [7]): 3 | Plant response rating, Morningglory (morningglory; [1]): 4 | Morningglory plant response rating (morningglory; [2]): 8 | Morningglory plant response rating (morningglory; [8]): 8 | Morningglory plant response rating (morningglory; [3]): 0 | Plant response rating, Morningglory (morningglory; [4]): 0 | Plant response rating, Morningglory (morningglory; [5]): 0 | Plant response rating, Morningglory (morningglory; [6]): 2 | Plant response rating, Corn (corn; [1]): 0 | Corn plant response rating (corn; [2]): 0 | Corn plant response rating (corn; [8]): 0 | Corn plant response rating (corn; [3]): 0 | Plant response rating, Corn (corn; [4]): 0 | Plant response rating, Corn (corn; [5]): 0 | Plant response rating, Corn (corn; [6]): 0 | Corn plant response rating (corn; [7]): 0 | Plant response rating, Soybean (soybean; [1]): 2 | Soybean plant response rating (soybean; [2]): 2 | Soybean plant response rating (soybean; [3]): 0 | Plant response rating, Soybean (soybean; [4]): 0 | Plant response rating, Soybean (soybean; [5]): 0 | Plant response rating, Soybean (soybean; [6]): 0 | Soybean plant response rating (soybean; [7]): 5

CCn1ncc(Cn2c(=O)on(C(=O)N(c3ccc(F)cc3)C(C)C)c2=O)c1Cl [Compound 686]
Nutsedge plant response rating (purple nutsedge; [3]): 0 | Plant response rating, Nutsedge (purple nutsedge; [4]): 0 | Crabgrass plant response rating (crabgrass; [3]): 8 | Plant response rating, Crabgrass (crabgrass; [4]): 9 | Plant response rating, Crabgrass (crabgrass; [5]): 10 | Redroot pigweed plant response rating (pigweed; [3]): 0 | Plant response rating, Redroot pigweed (pigweed; [4]): 6 | Blackgrass plant response rating (blackgrass; [3]): 4 | Plant response rating, Blackgrass (blackgrass; [4]): 7 | Plant response rating, Blackgrass (blackgrass; [5]): 8 | Plant response rating, Blackgrass (blackgrass; [6]): 9 | Wheat plant response rating (wheat; [3]): 0 | Plant response rating, Wheat (wheat; [4]): 0 | Bedstraw plant response rating (bedstraw; [3]): 0 | Plant response rating, Bedstraw (bedstraw; [4]): 0 | Plant response rating, Bedstraw (bedstraw; [5]): 0 | Plant response rating, Bedstraw (bedstraw; [6]): 0 | Wild oats plant response rating (wild oat; [3]): 0 | Plant response rating, Wild oats (wild oat; [4]): 1 | Giant foxtail plant response rating (giant foxtail; [3]): 9 | Plant response rating, Giant foxtail (giant foxtail; [4]): 9 | Sugarbeets plant response rating (sugar beet; [3]): 0 | Plant response rating, Sugarbeets (sugar beet; [4]): 0 | B. signalgrass plant response rating (surinam grass; [3]): 2 | Plant response rating, B. signalgrass (surinam grass; [4]): 5 | Plant response rating, B. signalgrass (surinam grass; [5]): 7 | Plant response rating, B. signalgrass (surinam grass; [6]): 9 | Cocklebur plant response rating (cocklebur; [3]): 0 | Plant response rating, Cocklebur (cocklebur; [5]): 0 | Plant response rating, Cocklebur (cocklebur; [6]): 0 | Velvetleaf plant response rating (velvetleaf; [3]): 0 | Plant response rating, Velvetleaf (velvetleaf; [4]): 0 | Rape plant response rating (rape; [3]): 0 | Plant response rating, Rape (rape; [4]): 0 | Morningglory plant response rating (morningglory; [3]): 0 | Plant response rating, Morningglory (morningglory; [4]): 0 | Corn plant response rating (corn; [3]): 0 | Plant response rating, Corn (corn; [4]): 0 | Plant response rating, Corn (corn; [5]): 0 | Soybean plant response rating (soybean; [3]): 0 | Plant response rating, Soybean (soybean; [4]): 0
